Data as given in patent publication US10597388B2, “Pyridazinone herbicides” (FMC CORPORATION, priority 2014, dated 2020).

Key:
Assay in all cases: Test C greenhouse herbicide test, pre- and postemergence
Format in all cases: in vivo
soybean (Glycine max) = tested on: soybean (Glycine max)
Summary of the method: (§1)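 Seeds sown in loam–sand blend treated preemergence; plants in peat-based medium sprayed postemergence at 2–18 cm (1- to 4-leaf stage); chemicals in non-phytotoxic solvent with surfactant. Greenhouse 13–15 d, then visual rating versus controls on 0–100 scale (0 no effect, 100 complete control).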

[1] = tested on: galium (catchweed bedstraw, Galium aparine)
Summary of the method: as §1

[2] = tested on: foxtail, giant (giant foxtail, Setaria faberii)
Summary of the method: as §1

[3] = tested on: waterhemp (common waterhemp, Amaranthus rudis)
Summary of the method: as §1

[4] = tested on: lambsquarters (Chenopodium album)
Summary of the method: as §1

[5] = tested on: ryegrass, Italian (Italian ryegrass, Lolium multiflorum)
Summary of the method: as §1

corn (Zea mays) = tested on: corn (Zea mays)
Summary of the method: as §1

[6] = tested on: velvetleaf (Abutilon theophrasti)
Summary of the method: as §1

[7] = tested on: crabgrass, large (large crabgrass, Digitaria sanguinalis)
Summary of the method: as §1

[8] = tested on: nutsedge, yellow (yellow nutsedge, Cyperus esculentus)
Summary of the method: as §1

[9] = tested on: morningglory (Ipomoea coccinea)
Summary of the method: as §1

[10] = tested on: pigweed (Amaranthus retroflexus)
Summary of the method: as §1

[11] = tested on: wheat (winter wheat, Triticum aestivum)
Summary of the method: as §1

[12] = tested on: blackgrass (Alopecurus myosuroides)
Summary of the method: as §1

[13] = tested on: barnyardgrass (Echinochloa crus-galli)
Summary of the method: as §1

[14] = Postemergence, 31 g ai/ha, 0 to 100 scale (0 no effect, 100 complete control)
[15] = Postemergence, 125 g ai/ha, scale 0 to 100, 0 is no effect, 100 is complete control
[16] = Postemergence, 250 g ai/ha, scale 0 to 100, 0 no effect, 100 complete control, 13 to 15 d
[17] = Preemergence, 31 g ai/ha, scale 0 to 100, 0 is no effect, 100 is complete control
[18] = Preemergence, 62 g ai/ha, scale 0 to 100, 0 is no effect, 100 is complete control
[19] = Preemergence, 125 g ai/ha, scale 0 to 100, 0 is no effect, 100 is complete control
[20] = Preemergence, 250 g ai/ha, scale 0 to 100, 0 no effect, 100 complete control
[21] = postemergence, 62 g ai/ha, scale 0 to 100, 0 no effect, 100 complete control

## CCc1sc2ccc(C)cc2c1-c1c(O)c(C)nn(C)c1=O [Compound 47]
Soybean (Glycine max); [14]
  Soybean plant response rating: 0
Soybean (Glycine max); [15]
  Plant response rating, Soybean: 10
Soybean (Glycine max); [16]
  Plant response rating, Soybean: 15
Soybean (Glycine max); [17]
  Plant response rating, Soybean: 0
Soybean (Glycine max); [18]
  Plant response rating, Soybean: 0
Soybean (Glycine max); [19]
  Plant response rating, Soybean: 10
Soybean (Glycine max); [20]
  Soybean plant response rating: 30
Soybean (Glycine max); [21]
  Soybean plant response rating: 10
[1]; [14]
  Galium plant response rating: 80
[1]; [15]
  Plant response rating, Galium: 90
[1]; [16]
  Plant response rating, Galium: 90
[1]; [17]
  Plant response rating, Galium: 90
[1]; [18]
  Plant response rating, Galium: 95
[1]; [19]
  Plant response rating, Galium: 98
[1]; [20]
  Galium plant response rating: 98
[1]; [21]
  Galium plant response rating: 90
[2]; [14]
  Foxtail, Giant plant response rating: 50
[2]; [15]
  Plant response rating, Foxtail, Giant: 75
[2]; [16]
  Plant response rating, Foxtail, Giant: 85
[2]; [17]
  Plant response rating, Foxtail, Giant: 15
[2]; [18]
  Plant response rating, Foxtail, Giant: 50
[2]; [19]
  Plant response rating, Foxtail, Giant: 85
[2]; [20]
  Foxtail, Giant plant response rating: 100
[2]; [21]
  Foxtail, Giant plant response rating: 65
[3]; [14]
  Waterhemp plant response rating: 90
[3]; [15]
  Plant response rating, Waterhemp: 100
[3]; [16]
  Plant response rating, Waterhemp: 100
[3]; [17]
  Plant response rating, Waterhemp: 100
[3]; [18]
  Plant response rating, Waterhemp: 98
[3]; [19]
  Plant response rating, Waterhemp: 100
[3]; [20]
  Waterhemp plant response rating: 100
[3]; [21]
  Waterhemp plant response rating: 75
[4]; [14]
  Lambsquarters plant response rating: 85
[4]; [15]
  Plant response rating, Lambsquarters: 98
[4]; [16]
  Plant response rating, Lambsquarters: 85
[4]; [17]
  Plant response rating, Lambsquarters: 100
[4]; [18]
  Plant response rating, Lambsquarters: 100
[4]; [19]
  Plant response rating, Lambsquarters: 100
[4]; [20]
  Lambsquarters plant response rating: 100
[4]; [21]
  Lambsquarters plant response rating: 85
[5]; [14]
  Ryegrass, Italian plant response rating: 0
[5]; [15]
  Plant response rating, Ryegrass, Italian: 25
[5]; [16]
  Plant response rating, Ryegrass, Italian: 30
[5]; [17]
  Plant response rating, Ryegrass, Italian: 0
[5]; [18]
  Plant response rating, Ryegrass, Italian: 20
[5]; [19]
  Plant response rating, Ryegrass, Italian: 45
[5]; [20]
  Ryegrass, Italian plant response rating: 50
[5]; [21]
  Ryegrass, Italian plant response rating: 10
Corn (Zea mays); [14]
  Corn plant response rating: 0
Corn (Zea mays); [15]
  Plant response rating, Corn: 10
Corn (Zea mays); [16]
  Plant response rating, Corn: 5
Corn (Zea mays); [17]
  Plant response rating, Corn: 0
Corn (Zea mays); [18]
  Plant response rating, Corn: 0
Corn (Zea mays); [19]
  Plant response rating, Corn: 0
Corn (Zea mays); [20]
  Corn plant response rating: 5
Corn (Zea mays); [21]
  Corn plant response rating: 5
[6]; [14]
  Velvetleaf plant response rating: 70
[6]; [15]
  Plant response rating, Velvetleaf: 95
[6]; [16]
  Plant response rating, Velvetleaf: 95
[6]; [17]
  Plant response rating, Velvetleaf: 65
[6]; [18]
  Plant response rating, Velvetleaf: 90
[6]; [19]
  Plant response rating, Velvetleaf: 100
[6]; [20]
  Velvetleaf plant response rating: 100
[6]; [21]
  Velvetleaf plant response rating: 90
[7]; [14]
  Crabgrass, Large plant response rating: 20
[7]; [15]
  Plant response rating, Crabgrass, Large: 40
[7]; [16]
  Plant response rating, Crabgrass, Large: 35
[7]; [17]
  Plant response rating, Crabgrass, Large: 0
[7]; [18]
  Plant response rating, Crabgrass, Large: 30
[7]; [19]
  Plant response rating, Crabgrass, Large: 60
[7]; [20]
  Crabgrass, Large plant response rating: 95
[7]; [21]
  Crabgrass, Large plant response rating: 30
[8]; [14]
  Nutsedge, Yellow plant response rating: 40
[8]; [15]
  Plant response rating, Nutsedge, Yellow: 80
[8]; [16]
  Plant response rating, Nutsedge, Yellow: 90
[8]; [17]
  Plant response rating, Nutsedge, Yellow: 35
[8]; [18]
  Plant response rating, Nutsedge, Yellow: 45
[8]; [19]
  Plant response rating, Nutsedge, Yellow: 75
[8]; [20]
  Nutsedge, Yellow plant response rating: 85
[8]; [21]
  Nutsedge, Yellow plant response rating: 70
[9]; [14]
  Morningglory plant response rating: 100
[9]; [15]
  Plant response rating, Morningglory: 100
[9]; [16]
  Plant response rating, Morningglory: 100
[9]; [17]
  Plant response rating, Morningglory: 90
[9]; [18]
  Plant response rating, Morningglory: 100
[9]; [19]
  Plant response rating, Morningglory: 100
[9]; [20]
  Morningglory plant response rating: 95
[9]; [21]
  Morningglory plant response rating: 100
[10]; [14]
  Pigweed plant response rating: 90
[10]; [15]
  Plant response rating, Pigweed: 98
[10]; [16]
  Plant response rating, Pigweed: 98
[10]; [17]
  Plant response rating, Pigweed: 100
[10]; [18]
  Plant response rating, Pigweed: 100
[10]; [19]
  Plant response rating, Pigweed: 100
[10]; [20]
  Pigweed plant response rating: 100
[10]; [21]
  Pigweed plant response rating: 90
[11]; [14]
  Wheat plant response rating: 0
[11]; [15]
  Plant response rating, Wheat: 0
[11]; [16]
  Plant response rating, Wheat: 0
[11]; [17]
  Plant response rating, Wheat: 0
[11]; [18]
  Plant response rating, Wheat: 0
[11]; [19]
  Plant response rating, Wheat: 0
[11]; [20]
  Wheat plant response rating: 0
[11]; [21]
  Wheat plant response rating: 0
[12]; [14]
  Blackgrass plant response rating: 0
[12]; [15]
  Plant response rating, Blackgrass: 30
[12]; [16]
  Plant response rating, Blackgrass: 30
[12]; [17]
  Plant response rating, Blackgrass: 0
[12]; [18]
  Plant response rating, Blackgrass: 30
[12]; [19]
  Plant response rating, Blackgrass: 40
[12]; [20]
  Blackgrass plant response rating: 90
[12]; [21]
  Blackgrass plant response rating: 20
[13]; [14]
  Barnyardgrass plant response rating: 15
[13]; [15]
  Plant response rating, Barnyardgrass: 85
[13]; [16]
  Plant response rating, Barnyardgrass: 90
[13]; [17]
  Plant response rating, Barnyardgrass: 5
[13]; [18]
  Plant response rating, Barnyardgrass: 20
[13]; [19]
  Plant response rating, Barnyardgrass: 85
[13]; [20]
  Barnyardgrass plant response rating: 100
[13]; [21]
  Barnyardgrass plant response rating: 55
